Results published in patent publication US9269550B2, “Mass spectrometric methods for quantifying NPY 1-36 and NPY 3-36” (Georgetown University, priority 2010, dated 2016).

Columns and labels:
[1] = tested on: SK-N-MC cells; experiment: Cell viability in SK-N-MC cells; format: cell-based, human
[2] = target: T1, Y1Rs (Homo sapiens, UniProt P25929); conditions: cited from earlier work
T1 sequence (P25929 1-384): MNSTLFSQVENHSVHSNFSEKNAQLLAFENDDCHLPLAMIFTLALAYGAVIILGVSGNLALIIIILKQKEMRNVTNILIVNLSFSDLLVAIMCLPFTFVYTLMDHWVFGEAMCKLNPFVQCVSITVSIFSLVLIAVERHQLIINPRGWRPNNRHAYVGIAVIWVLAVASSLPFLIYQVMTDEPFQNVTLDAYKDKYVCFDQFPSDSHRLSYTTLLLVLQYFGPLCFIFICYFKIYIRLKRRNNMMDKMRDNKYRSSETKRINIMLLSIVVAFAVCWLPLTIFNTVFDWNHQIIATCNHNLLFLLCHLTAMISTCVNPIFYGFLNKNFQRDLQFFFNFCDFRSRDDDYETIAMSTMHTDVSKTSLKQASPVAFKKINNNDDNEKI

## NPY 1-36: 36-amino acid peptide neurotransmitter found in the brain and autonomic nervous system
[1]
  decrease in cell viability: decrease in cell viability was achieved

## NPY 3-36: 34-amino acid peptide fragment formed by dipeptidyl peptidase IV (DPPIV) cleavage of NPY 1-36
[2]
  activity at Y1Rs: inactive
[1]
  decrease in cell viability: not
